The target in test [1] is T1, Coagulation factor X (Homo sapiens, UniProt P00742). Description: Inhibitory activity against human Coagulation factor Xa.
In test [2] the target is Prothrombin (Homo sapiens, UniProt P00734). In words: Inhibitory activity against human thrombin.
In test [3] the target is T1, Coagulation factor X. In words: Inhibitory Activity against Coagulation factor X.
Test [4] addresses Serine protease 1 (Homo sapiens, UniProt P07477). Description: Inhibitory Activity against Trypsin.

A value given as a limit tells only on which side of the number the result lay.

The IC50 is the point on the concentration scale where inhibition reaches its midpoint. A higher IC50 goes with lower potency. As usually defined, the Ki is a measure of affinity in units of concentration, obtained from inhibition or displacement. A high value points to a looser hold on the target.

T1 sequence (P00742 41-179 limits assumed): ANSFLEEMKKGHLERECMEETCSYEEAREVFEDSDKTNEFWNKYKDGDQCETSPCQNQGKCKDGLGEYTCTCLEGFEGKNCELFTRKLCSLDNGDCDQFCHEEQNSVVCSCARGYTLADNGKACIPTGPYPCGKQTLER
T1 sequence (P00742 235-488 limits assumed): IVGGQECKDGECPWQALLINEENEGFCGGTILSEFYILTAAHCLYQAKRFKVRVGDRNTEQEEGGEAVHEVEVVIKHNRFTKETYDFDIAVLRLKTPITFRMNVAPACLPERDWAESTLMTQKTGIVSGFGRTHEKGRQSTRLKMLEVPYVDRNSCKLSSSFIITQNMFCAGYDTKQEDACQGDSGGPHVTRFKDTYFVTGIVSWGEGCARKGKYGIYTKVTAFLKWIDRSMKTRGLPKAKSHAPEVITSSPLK
Sequence of Serine protease 1 (P07477 whole entry): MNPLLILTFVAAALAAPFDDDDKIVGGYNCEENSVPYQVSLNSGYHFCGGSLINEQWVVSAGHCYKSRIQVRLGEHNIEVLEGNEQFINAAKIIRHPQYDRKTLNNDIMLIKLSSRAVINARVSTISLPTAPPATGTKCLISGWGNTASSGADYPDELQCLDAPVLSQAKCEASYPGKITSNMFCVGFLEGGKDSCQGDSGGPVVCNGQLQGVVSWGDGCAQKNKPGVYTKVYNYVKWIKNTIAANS

As to `N=C(N)c1cccc(-c2cccc([C@H](CCCNc3ccncc3)C(=O)O)c2)c1`, the IC50 is 2.72 nM in test [1] and > 100 µM in test [2].

Regarding `CC1CNc2c(cccc2S(=O)(=O)N[C@@H](CCCN=C(N)N)C(=O)N2CC[C@@H](C)CC2C(=O)O)C1` (some centres undefined), the Ki in test [3] worked out at 210 µM; in test [4] it was 5 µM.

These data come from ChEMBL document CHEMBL1133610, “GRID/CPCA: a new computational tool to design selective ligands” (J Med Chem, 2000).
